Source: patent US10105373B2, “Fused triterpene compounds and uses thereof” (PIRAMAL ENTERPRISES LIMITED, priority 2014, dated 2018)

Biological target: T1, RORγt receptor protein (Homo sapiens, UniProt P51449)
T1 sequence (P51449 1-497 isoform P51449-2): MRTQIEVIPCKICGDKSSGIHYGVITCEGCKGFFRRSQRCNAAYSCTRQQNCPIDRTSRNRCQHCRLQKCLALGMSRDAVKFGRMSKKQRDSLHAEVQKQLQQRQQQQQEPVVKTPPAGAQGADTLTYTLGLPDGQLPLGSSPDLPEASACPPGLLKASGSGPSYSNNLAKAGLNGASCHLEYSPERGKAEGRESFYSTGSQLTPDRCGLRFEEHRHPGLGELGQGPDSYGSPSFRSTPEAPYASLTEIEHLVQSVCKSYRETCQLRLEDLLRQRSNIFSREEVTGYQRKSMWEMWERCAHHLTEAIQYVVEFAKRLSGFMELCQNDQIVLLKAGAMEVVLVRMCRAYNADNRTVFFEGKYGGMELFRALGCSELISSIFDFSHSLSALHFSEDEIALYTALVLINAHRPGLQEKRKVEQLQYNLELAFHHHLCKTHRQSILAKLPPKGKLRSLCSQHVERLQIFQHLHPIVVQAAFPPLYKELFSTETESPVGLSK
Test: General RORγ binding assay (radioligand binding, [3H]25-hydroxy cholesterol displacement)
Conditions: displacement of [3H]25-hydroxy cholesterol from 200 ng RORγt receptor protein, 1 h room temperature; test concentrations 0.01-3 μM, concentration for the % not stated
Method: General RORγ Binding Assay:
The RORγ binding of compounds of the present invention as described herein to RORγ was measured. For the radioligand binding assay, various concentrations of the test compounds were prepared (0.01 μM, 0.03 μM, 0.1 μM, 0.3 μM, 1 μM and 3 μM) and the samples were incubated with 200 ng of RORγt receptor protein in the presence of the [^3H]25-hydroxy cholesterol and the mixture was incubated at room temperature for 1 h. An extent of displacement of the radioligand was measured after harvesting the reaction mixture on filter plate reader using TopCount (Perkin Elmer) for radioactivity. The compounds of present invention were tested for RORγ binding using the above assay procedure and the results obtained are given in the below Table 1.

Row | Compound | ROR binding (%)
1 | C[C@H]1[C@H](C)CC[C@]2(C(=O)O)CC[C@]3(C)C(=CC[C@@H]4[C@@]5(C)Cc6cncnc6C(C)(C)[C@@H]5CC[C@]43C)[C@H]12 [Example 6, (1S,2R,4aS,6aS,6bR,8aR,14aR,14bR,16bS)-1,2,6a,6b,9,9,14a-heptamethyl-1,2,3,4,4a,5,6,6a,6b,7,8,8a,9,14,14a,14b,15,16b-octadecahydrochryseno[1,2-g]quinazoline-4a-carboxylic acid] | +++ (‘+++’ corresponds to more than 80% binding of the compounds of present invention)
2 | C[C@H]1[C@H](C)CC[C@]2(C(=O)O)CC[C@]3(C)C(=CC[C@@H]4[C@@]5(C)Cc6c(N7CCOCC7)ncnc6C(C)(C)[C@@H]5CC[C@]43C)[C@H]12 [Example 14, (1S,2R,4aS,6aS,6bR,8aR,14aR,14bR,16bS)-1,2,6a,6b,9,9,14a-heptamethyl-13-morpholino-1,2,3,4,4a,5,6,6a,6b,7,8,8a,9,14,14a,14b,15,16b-octadecahydrochryseno[1,2-g]quinazoline-4a-carboxylic acid] | ++ (‘++’ corresponds to 50 to 70% binding of the compounds of present invention)
3 | COc1ncnc2c1C[C@]1(C)[C@H]3CC=C4[C@@H]5[C@@H](C)[C@H](C)CC[C@]5(C(=O)O)CC[C@@]4(C)[C@]3(C)CC[C@H]1C2(C)C [Example 23, (1S,2R,4aS,6aS,6bR,8aR,14aR,14bR,16bS)-13-methoxy-1,2,6a,6b,9,9,14a-heptamethyl-1,2,3,4,4a,5,6,6a,6b,7,8,8a,9,14,14a,14b,15,16b-octadecahydrochryseno[1,2-g]quinazoline-4a-carboxylic acid] | ++ (‘++’ corresponds to 50 to 70% binding of the compounds of present invention)
4 | C[C@H]1[C@H](C)CC[C@]2(C(=O)O)CC[C@]3(C)C(=CC[C@@H]4[C@@]5(C)Cc6c(N(C)C)ncnc6C(C)(C)[C@@H]5CC[C@]43C)[C@H]12 [Example 27, (1S,2R,4aS,6aS,6bR,8aR,14aR,14bR,16bS)-13-(dimethylamino)-1,2,6a,6b,9,9,14a-hepta methyl-1,2,3,4,4a,5,6,6a,6b,7,8,8a,9,14,14a,14b,15,16b-octadecahydrochryseno[1,2-g]quinazoline-4a-carboxylic acid] | ++ (‘++’ corresponds to 50 to 70% binding of the compounds of present invention)
5 | Cc1nc(O)c2c(n1)C(C)(C)[C@@H]1CC[C@]3(C)[C@H](CC=C4[C@@H]5[C@@H](C)[C@H](C)CC[C@]5(C(=O)O)CC[C@]43C)[C@@]1(C)C2 [Example 31, (1S,2R,4aS,6aS,6bR,8aR,14aR,14bR,16bS)-13-hydroxy-1,2,6a,6b,9,9,11,14a-octamethyl-1,2,3,4,4a,5,6,6a,6b,7,8,8a,9,14,14a,14b,15,16b-octadecahydrochryseno[1,2-g]quinazoline-4a-carboxylic acid] | ++ (‘++’ corresponds to 50 to 70% binding of the compounds of present invention)
6 | Cc1nc(N(C)C)c2c(n1)C(C)(C)[C@@H]1CC[C@]3(C)[C@H](CC=C4[C@@H]5[C@@H](C)[C@H](C)CC[C@]5(C(=O)O)CC[C@]43C)[C@@]1(C)C2 [Example 38, (1S,2R,4aS,6aS,6bR,8aR,14aR,14bR,16bS)-13-(dimethylamino)-1,2,6a,6b,9,9,11,14a-octamethyl-1,2,3,4,4a,5,6,6a,6b,7,8,8a,9,14,14a,14b,15,16b-octadecahydrochryseno[1,2-g]quinazoline-4a-carboxylic acid] | ++ (‘++’ corresponds to 50 to 70% binding of the compounds of present invention)
7 | Cc1nc(N2CCCC2)c2c(n1)C(C)(C)[C@@H]1CC[C@]3(C)[C@H](CC=C4[C@@H]5[C@@H](C)[C@H](C)CC[C@]5(C(=O)O)CC[C@]43C)[C@@]1(C)C2 [Example 45, (1S,2R,4aS,6aS,6bR,8aR,14aR,14bR,16bS)-1,2,6a,6b,9,9,11,14a-octamethyl-13-(pyrrolidin-1-yl)-1,2,3,4,4a,5,6,6a,6b,7,8,8a,9,14,14a,14b,15,16b-octadecahydrochryseno[1,2-g]quinazoline-4a-carboxylic acid] | ++ (‘++’ corresponds to 50 to 70% binding of the compounds of present invention)
8 | Cc1nc(N2CCOCC2)c2c(n1)C(C)(C)[C@@H]1CC[C@]3(C)[C@H](CC=C4[C@@H]5[C@@H](C)[C@H](C)CC[C@]5(C(=O)O)CC[C@]43C)[C@@]1(C)C2 [Example 55, (1S,2R,4aS,6aS,6bR,8aR,14aR,14bR,16bS)-1,2,6a,6b,9,9,11,14a-octamethyl-13-morpholino-1,2,3,4,4a,5,6,6a,6b,7,8,8a,9,14,14a,14b,15,16b-octadecahydrochryseno[1,2-g]quinazoline-4a-carboxylic acid] | ++ (‘++’ corresponds to 50 to 70% binding of the compounds of present invention)
9 | Cc1ncc2c(n1)C(C)(C)[C@@H]1CC[C@]3(C)[C@H](CC=C4[C@@H]5[C@@H](C)[C@H](C)CC[C@]5(C(=O)O)CC[C@]43C)[C@@]1(C)C2 [Example 59, (1S,2R,4aS,6aS,6bR,8aR,14aR,14bR,16bS)-1,2,6a,6b,9,9,11,14a-octamethyl-1,2,3,4,4a,5,6,6a,6b,7,8,8a,9,14,14a,14b,15,16b-octadecahydrochryseno[1,2-g]quinazoline-4a-carboxylic acid] | +++ (‘+++’ corresponds to more than 80% binding of the compounds of present invention)
10 | CCS(=O)(=O)c1ncc2c(n1)C(C)(C)[C@@H]1CC[C@]3(C)[C@H](CC=C4C5[C@@H](C)[C@H](C)CC[C@]5(C(=O)O)CC[C@]43C)[C@@]1(C)C2 (stereo partly drawn) [Example 78, (1S,2R,4aS,6aS,6bR,8aR,14aR,14bR)-11-(ethylsulfonyl)-1,2,6a,6b,9,9,14a-heptamethyl-1,2,3,4,4a,5,6,6a,6b,7,8,8a,9,14,14a,14b,15,16b-octadecahydrochryseno[1,2-g]quinazoline-4a-carboxylic acid] | +++ (‘+++’ corresponds to more than 80% binding of the compounds of present invention)
11 | C[C@H]1[C@H](C)CC[C@]2(C(=O)O)CC[C@]3(C)C(=CC[C@@H]4[C@@]5(C)Cc6cnc(S(C)(=O)=O)nc6C(C)(C)[C@@H]5CC[C@]43C)[C@H]12 [Example 81, (1S,2R,4aS,6aS,6bR,8aR,14aR,14bR,16bS)-1,2,6a,6b,9,9,14a-heptamethyl-11-(methylsulfonyl)-1,2,3,4,4a,5,6,6a,6b,7,8,8a,9,14,14a,14b,15,16b-octadecahydrochryseno [1,2-g]quinazoline-4a-carboxylic acid] | +++ (‘+++’ corresponds to more than 80% binding of the compounds of present invention)
12 | C[C@H]1[C@H](C)CC[C@]2(C(=O)O)CC[C@]3(C)C(=CC[C@@H]4[C@@]5(C)Cc6cccnc6C(C)(C)[C@@H]5CC[C@]43C)[C@H]12 [Example 84, (1S,2R,4aS,6aS,6bR,8aR,14aR,14bR,16bS)-1,2,3,4,4a,5,6,6a,6b,7,8,8a,9,14,14a,14b,15,16b-octadecahydro-1,2,6a, 6b,9,9,14a-heptamethylchryseno[1,2-g]quinoline-4a-carboxylic acid] | ++ (‘++’ corresponds to 50 to 70% binding of the compounds of present invention)
13 | C[C@H]1[C@H](C)CC[C@]2(C(=O)O)CC[C@]3(C)C(=CC[C@@H]4[C@@]5(C)Cc6cc(C(N)=O)cnc6C(C)(C)[C@@H]5CC[C@]43C)[C@H]12 [Example 94, (1S,2R,4aS,6aS,6bR,8aR,14aR,14bR,16bS)-12-carbamoyl-1,2,3,4,4a,5,6,6a,6b,7,8,8a,9,14,14a,14b,15,16b-octadecahydro-1,2,6a,6b,9,9,14a-heptamethylchryseno[1,2-g]quinoline-4a-carboxylic acid] | ++ (‘++’ corresponds to 50 to 70% binding of the compounds of present invention)
